US10358434B2, “2-(3-pyridinyl)-1H-benzimidazole derivative compound and medicament containing same” (NIHON MEDI-PHYSICS CO., LTD., priority 2014, dated 2019)

Legend:
[1] = In vivo kinetics experiment (radioactivity distribution); design: species or system Wistar male rat; details: rat i.v., mean ± SD
In short: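 Male Wistar rats (9 weeks) under isoflurane received approximately 1 to 3.7 MBq radiotracer in saline with 1 w/v % ascorbic acid by tail-vein injection. At 10, 30 and 60 min, rats were exsanguinated; blood, organs and remaining body weighed and counted, giving % ID/g and adrenal-to-tissue ratios.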

[2] = system: human adrenal gland section expressing aldosterone-producing adenoma; assay: In vitro autoradiography using human adrenal adenoma; format: binding; details: section of FIG. 17(b)
In short: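 Frozen 7-μm sections of human adrenal bearing aldosterone-producing adenoma were immersed 10 min in radioligand (5-33 kBq/mL) in PBS with 1% fatty-acid-free BSA, washed, then exposed to imaging plates for 16-20 h. Equal-area ROI PSL in adenoma (B2) versus normal cortex (B1) gave B2/B1, corrected for nuclide half-life, added activity and exposure time.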

[3] = Plasma stability evaluation (TLC analysis); format: in vitro ADME; details: 37° C., 60 minutes, TLC analysis
In short: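 Radiolabelled compounds were incubated in heparin-treated pooled normal human plasma at 37° C for 60 minutes. After methanol deproteinization and centrifugation, stability was assessed by TLC under the conditions used for each compound's synthesis.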

For `Fc1cc2nc(-c3cncc(Cn4ccnc4)c3)n(Cc3ccc([123I])cc3)c2cc1Cl` [[^123I] 605, 6-Chloro-5-fluoro-1-(4-[^123I]iodobenzyl)-2-[5-(1H-imidazol-1-ylmethyl)-3-pyridinyl]-1H-benzimidazole], which “Adrenal gland/blood ratio of radioactivity accumulation” value (“Adrenal gland/blood ratio” below) ([1]; 10 min after administration) is on record?
The value was 39.83 ± 1.25.

And the “Adrenal gland/fat ratio of radioactivity accumulation” value (“Adrenal gland/fat ratio” for short) ([1]; 10 min after administration)?
Its value is 41.90 ± 6.19.

What about the “Adrenal gland/kidney ratio of radioactivity accumulation” value (“Adrenal gland/kidney ratio” below) ([1]; 10 min after administration) of the same compound?
The value was 2.61 ± 0.04.

And the “Adrenal gland/liver ratio of radioactivity accumulation” value (from here on “Adrenal gland/liver ratio”) ([1]; 10 min after administration)?
Its value is 1.38 ± 0.01.

What about the “Adrenal gland/muscle ratio of radioactivity accumulation” value (from here on “Adrenal gland/muscle ratio”) ([1]; 10 min after administration) of the same compound?
Its value is 36.77 ± 3.87.

And the “Adrenal gland/small intestine ratio of radioactivity accumulation” value (shortened to “Adrenal gland/small intestine ratio”) ([1]; 10 min after administration)?
The value was 2.44 ± 0.80.

And the “Radioactivity distribution Adrenal gland” value ([1]; 10 min after administration)?
Its value is 5.67 ± 0.25 % ID/g.

And the “Radioactivity distribution Bladder (including urine)” value (“Radioactivity distribution Bladder” for short) ([1]; 10 min after administration)?
The value was 0.09 ± 0.06 % ID/g.

What about the “Radioactivity distribution Blood” value ([1]; 10 min after administration) of the same compound?
The value was 0.14 ± 0.00 % ID/g.

What about the “Radioactivity distribution Fat” value ([1]; 10 min after administration) of the same compound?
The value was 0.14 ± 0.02 % ID/g.

What about the “Radioactivity distribution Femur” value ([1]; 10 min after administration) of the same compound?
The value was 0.51 ± 0.02 % ID/g.

And the “Radioactivity distribution Heart” value ([1]; 10 min after administration)?
Its value is 0.73 ± 0.06 % ID/g.

What about the “Radioactivity distribution Kidney” value ([1]; 10 min after administration) of the same compound?
The value was 2.17 ± 0.09 % ID/g.

And the “Radioactivity distribution Large intestine” value ([1]; 10 min after administration)?
Its value is 0.13 ± 0.01 % ID/g.

And the “Radioactivity distribution Liver” value ([1]; 10 min after administration)?
Its value is 4.12 ± 0.23 % ID/g.

And the “Radioactivity distribution Lung” value ([1]; 10 min after administration)?
The value was 1.94 ± 0.16 % ID/g.

And the “Radioactivity distribution Muscle (lower limbs)” value ([1]; 10 min after administration)?
Its value is 0.16 ± 0.01 % ID/g.

And the “Radioactivity distribution Remaining whole body” value ([1]; 10 min after administration)?
Its value is 0.20 ± 0.01 % ID/g.

And the “Radioactivity distribution Small intestine” value ([1]; 10 min after administration)?
Its value is 2.46 ± 0.61 % ID/g.

What about the “Radioactivity distribution Spleen” value ([1]; 10 min after administration) of the same compound?
The value was 1.08 ± 0.10 % ID/g.

And the “Radioactivity distribution Stomach” value ([1]; 10 min after administration)?
The value was 0.80 ± 0.23 % ID/g.

What about the “Radioactivity distribution Testis” value ([1]; 10 min after administration) of the same compound?
The value was 0.03 ± 0.00 % ID/g.

What about the “Radioactivity distribution Whole brain” value ([1]; 10 min after administration) of the same compound?
The value was 0.03 ± 0.00 % ID/g.

And the “Adrenal gland/blood ratio” value ([1]; 30 min after administration)?
The value was 26.42 ± 7.24.

What about the “Adrenal gland/fat ratio” value ([1]; 30 min after administration) of the same compound?
Its value is 22.69 ± 9.87.

And the “Adrenal gland/kidney ratio” value ([1]; 30 min after administration)?
The value was 2.58 ± 0.55.

What about the “Adrenal gland/liver ratio” value ([1]; 30 min after administration) of the same compound?
The value was 1.14 ± 0.36.

What about the “Adrenal gland/muscle ratio” value ([1]; 30 min after administration) of the same compound?
Its value is 14.44 ± 5.54.

What about the “Adrenal gland/small intestine ratio” value ([1]; 30 min after administration) of the same compound?
The value was 0.79 ± 0.34.

What about the “Radioactivity distribution Adrenal gland” value ([1]; 30 min after administration) of the same compound?
Its value is 3.10 ± 1.06 % ID/g.

And the “Radioactivity distribution Bladder” value ([1]; 30 min after administration)?
Its value is 0.15 ± 0.01 % ID/g.

And the “Radioactivity distribution Blood” value ([1]; 30 min after administration)?
Its value is 0.12 ± 0.01 % ID/g.

What about the “Radioactivity distribution Fat” value ([1]; 30 min after administration) of the same compound?
The value was 0.14 ± 0.03 % ID/g.

What about the “Radioactivity distribution Femur” value ([1]; 30 min after administration) of the same compound?
Its value is 0.44 ± 0.04 % ID/g.

What about the “Radioactivity distribution Heart” value ([1]; 30 min after administration) of the same compound?
The value was 0.52 ± 0.04 % ID/g.

And the “Radioactivity distribution Kidney” value ([1]; 30 min after administration)?
Its value is 1.18 ± 0.14 % ID/g.

And the “Radioactivity distribution Large intestine” value ([1]; 30 min after administration)?
The value was 0.16 ± 0.01 % ID/g.

And the “Radioactivity distribution Liver” value ([1]; 30 min after administration)?
The value was 2.72 ± 0.12 % ID/g.

And the “Radioactivity distribution Lung” value ([1]; 30 min after administration)?
Its value is 0.99 ± 0.10 % ID/g.

What about the “Radioactivity distribution Muscle (lower limbs)” value ([1]; 30 min after administration) of the same compound?
The value was 0.22 ± 0.02 % ID/g.

What about the “Radioactivity distribution Remaining whole body” value ([1]; 30 min after administration) of the same compound?
Its value is 0.21 ± 0.02 % ID/g.

And the “Radioactivity distribution Small intestine” value ([1]; 30 min after administration)?
Its value is 3.99 ± 0.33 % ID/g.

What about the “Radioactivity distribution Spleen” value ([1]; 30 min after administration) of the same compound?
Its value is 0.58 ± 0.09 % ID/g.

And the “Radioactivity distribution Stomach” value ([1]; 30 min after administration)?
Its value is 1.38 ± 0.42 % ID/g.

What about the “Radioactivity distribution Testis” value ([1]; 30 min after administration) of the same compound?
Its value is 0.03 ± 0.00 % ID/g.

What about the “Radioactivity distribution Whole brain” value ([1]; 30 min after administration) of the same compound?
The value was 0.03 ± 0.00 % ID/g.

What about the “Adrenal gland/blood ratio” value ([1]; 60 min after administration) of the same compound?
The value was 20.07 ± 1.94.

And the “Adrenal gland/fat ratio” value ([1]; 60 min after administration)?
The value was 10.82 ± 1.23.

And the “Adrenal gland/kidney ratio” value ([1]; 60 min after administration)?
The value was 2.05 ± 0.09.

What about the “Adrenal gland/liver ratio” value ([1]; 60 min after administration) of the same compound?
The value was 0.88 ± 0.05.

What about the “Adrenal gland/muscle ratio” value ([1]; 60 min after administration) of the same compound?
Its value is 10.90 ± 0.67.

What about the “Adrenal gland/small intestine ratio” value ([1]; 60 min after administration) of the same compound?
Its value is 0.26 ± 0.08.

And the “Radioactivity distribution Adrenal gland” value ([1]; 60 min after administration)?
Its value is 1.70 ± 0.21 % ID/g.

What about the “Radioactivity distribution Bladder” value ([1]; 60 min after administration) of the same compound?
The value was 0.13 ± 0.05 % ID/g.

What about the “Radioactivity distribution Blood” value ([1]; 60 min after administration) of the same compound?
The value was 0.09 ± 0.02 % ID/g.

What about the “Radioactivity distribution Fat” value ([1]; 60 min after administration) of the same compound?
The value was 0.16 ± 0.02 % ID/g.

What about the “Radioactivity distribution Femur” value ([1]; 60 min after administration) of the same compound?
Its value is 0.36 ± 0.03 % ID/g.

And the “Radioactivity distribution Heart” value ([1]; 60 min after administration)?
Its value is 0.35 ± 0.09 % ID/g.

And the “Radioactivity distribution Kidney” value ([1]; 60 min after administration)?
The value was 0.83 ± 0.10 % ID/g.

And the “Radioactivity distribution Large intestine” value ([1]; 60 min after administration)?
Its value is 0.19 ± 0.03 % ID/g.

What about the “Radioactivity distribution Liver” value ([1]; 60 min after administration) of the same compound?
The value was 1.93 ± 0.37 % ID/g.

What about the “Radioactivity distribution Lung” value ([1]; 60 min after administration) of the same compound?
The value was 0.56 ± 0.15 % ID/g.

And the “Radioactivity distribution Muscle (lower limbs)” value ([1]; 60 min after administration)?
The value was 0.16 ± 0.01 % ID/g.

And the “Radioactivity distribution Remaining whole body” value ([1]; 60 min after administration)?
The value was 0.13 ± 0.02 % ID/g.

And the “Radioactivity distribution Small intestine” value ([1]; 60 min after administration)?
The value was 6.65 ± 0.98 % ID/g.

And the “Radioactivity distribution Spleen” value ([1]; 60 min after administration)?
Its value is 0.34 ± 0.07 % ID/g.

What about the “Radioactivity distribution Stomach” value ([1]; 60 min after administration) of the same compound?
The value was 2.22 ± 0.73 % ID/g.

What about the “Radioactivity distribution Testis” value ([1]; 60 min after administration) of the same compound?
Its value is 0.03 ± 0.01 % ID/g.

And the “Radioactivity distribution Whole brain” value ([1]; 60 min after administration)?
Its value is 0.02 ± 0.01 % ID/g.

What about the B2/B1 accumulation ratio [2] of the same compound?
Its B2/B1 accumulation ratio is 0.94.

What about the “B2 (PSL value, aldosterone-producing adenoma)” value ([2]; site 71b) of the same compound?
Its value is 4065.

What about the “B1 (PSL value, normal adrenal cortex)” value ([2]; site 72b) of the same compound?
Its value is 4318.

What about the “Radiochemical purity after incubation in human plasma” value [3] of the same compound?
Its value is 90%.
